Patent US20240245673A1, “Papain-like protease (PLpro) inhibitors” (Pfizer Inc., priority 2022, published 2024)
Where two headings read alike, the source gives them in different places.

Molecular target: SARS-CoV-2 Papain like protease (PLpro) (Severe acute respiratory syndrome coronavirus 2 (2019-nCoV) (SARS-CoV-2), UniProt P0DTD1)
Assay: Papain Like Protease (PLpro) biochemical assay with profluorogenic substrate Z-RLRGG-AMC
Conditions: SARS-CoV-2 PLpro 6.25 nM, 25 μM Z-RLRGG-AMC substrate, 60 minute reaction

Work on Cc1ccccc1C(=O)NC(C)c1cc(-c2cnn(C(F)F)c2)nc2ccccc12 (stereo not shown) [Example 105, N-(1-{2-[1-(difluoromethyl)-1H-pyrazol-4-yl]quinolin-4-yl}ethyl)-2-methylbenzamide] yielded an IC50 (IC50 (μM)) of 0.266 µM.
With CNCc1ccc(C)c(C(=O)N[C@H](C)c2cc(-c3cc(C(=O)OC)c[nH]3)nc3ccccc23)c1 [Example 57, methyl (R)-5-(4-(1-(2-methyl-5-((methylamino)methyl)benzamido)ethyl)quinolin-2-yl)-1H-pyrrole-3-carboxylate] the IC50 (read-out: IC50) was 0.013 µM.
With Cc1cc(CNCc2ncc[nH]2)ccc1C(=O)NC(C)c1cc(-c2cnn(C)c2)cc2ccccc12 (stereo not shown) [Example 6, 4-((((1H-imidazol-2-yl)methyl)amino)methyl)-2-methyl-N-(1-(3-(1-methyl-1H-pyrazol-4-yl)naphthalen-1-yl)ethyl)benzamide] the IC50 (read-out: IC50) was 0.019 µM.
Work on Cc1ccccc1C(=O)NC(C)c1cc(-c2[nH]ncc2C)nc2ccccc12 (stereo not shown) [Example 102] yielded an IC50 (read-out: IC50) of 0.904 µM.
Cc1ccccc1C(=O)NC(C)c1cc(NCC(=O)N2CCOCC2)nc2ccccc12 (stereo not shown) [Example 146, 2-methyl-N-[1-(2-{[2-(morpholin-4-yl)-2-oxoethyl]amino}-quinolin-4-yl)ethyl]benzamide] showed an IC50 (read-out: IC50) of 4.5 µM.
With CCN(C)C(=O)Cn1cc(-c2cc(C3(NC(=O)c4ccc(COCc5cscn5)cc4C)CC3)c3ccccc3n2)cn1 [Example 364] the IC50 (read-out: IC50) was less than 0.001 µM.
Cc1cc(COCc2nccn2C)ccc1C(=O)N[C@H](C)c1cc(-c2cnn(C)c2)nc2ccccc12 [Example 291, (R)-2-methyl-4-(((1-methyl-1H-imidazol-2-yl)methoxy)methyl)-N-(1-(2-(1-methyl-1H-pyrazol-4-yl)quinolin-4-yl)ethyl)benzamide] gave an IC50 (read-out: IC50) of 0.001 µM.
For Cc1cc(CN(C)Cc2cscn2)ccc1C(=O)N[C@H](C)c1cc(-c2cnn(C)c2)nc2ccccc12 [Example 266, (R)-2-methyl-4-((methyl(thiazol-4-ylmethyl)amino)methyl)-N-(1-(2-(1-methyl-1H-pyrazol-4-yl)quinolin-4-yl)ethyl)benzamide], the IC50 (read-out: IC50) was 0.024 µM.
CNCc1ccc(C)c(C(=O)NC(C)c2cc(-c3cnn(C)c3)cc3ccccc23)c1 (stereo not shown) [Example 10, 2-methyl-N-(1-(3-(1-methyl-1H-pyrazol-4-yl)naphthalen-1-yl)ethyl)-5-((methylamino)methyl)benzamide] gave an IC50 (read-out: IC50) of 0.033 µM.
In the case of Cc1ccc(N2CC3CC(C2)N3C)cc1C(=O)NC1(c2cc(-c3cnn(C)c3)nc3ccccc23)CC1 [Example 290, 2-methyl-N-(1-(2-(1-methyl-1H-pyrazol-4-yl)quinolin-4-yl)cyclopropyl)-5-(6-methyl-3,6-diazabicyclo[3.1.1]heptan-3-yl)benzamide], the IC50 (IC50 (μM)) is reported as 0.001 µM.
Cc1ccccc1C(=O)NC(C)c1cc(-c2cnn(CC(F)F)c2)nc2ccccc12 (stereo not shown) [Example 120, N-(1-{2-[1-(2,2-difluoroethyl)-1H-pyrazol-4-yl]quinolin-4-yl}ethyl)-2-methylbenzamide] gave an IC50 (read-out: IC50) of 0.345 µM.
Cc1ccccc1C(=O)NC(C)c1cc(NC2(C#N)CC2)nc2ccccc12 (stereo not shown) [Example 145, N-(1-{2-[(1-cyanocyclopropyl)amino]quinolin-4-yl}ethyl)-2-methylbenzamide] showed an IC50 (read-out: IC50) of 2.52 µM.
For COC[C@H](OCc1cscn1)c1ccc(C(=O)NC2(c3cc(-c4cc(C(=O)N(C)C)n[nH]4)cc4ncccc34)CC2)c(C)c1 (single isomer, unassigned) [Example 361], the IC50 (read-out: IC50) was less than 0.001 µM.
COCCOc1cc([C@@H](C)NC(=O)c2ccccc2C)c2ccccc2n1 [Example 47, (R)-N-(1-(2-(2-methoxyethoxy)quinolin-4-yl)ethyl)-2-methylbenzamide] was tested, and the IC50 (read-out: IC50) was 3.13 µM.
For Cc1cc(C(C)NC(=O)c2cscn2)ccc1C(=O)N[C@H](C)c1cc(-c2cnn(C)c2)nc2ccccc12 (stereo partly drawn) [Example 269, N-(1-(3-methyl-4-(((R)-1-(2-(1-methyl-1H-pyrazol-4-yl)quinolin-4-yl)ethyl)carbamoyl)phenyl)ethyl)thiazole-4-carboxamide], the IC50 (read-out: IC50) was 0.041 µM.
Cc1cc(C(=O)NC(C)c2ncc[nH]2)ccc1C(=O)N[C@H](C)c1cc(-c2cnn(C)c2)nc2ccccc12 (stereo partly shown) [Example 246] gave an IC50 (read-out: IC50) of 0.035 µM.
Work on Cc1ccc(CN)cc1C(=O)NC(C)c1cc(-n2cc(C(F)(F)F)nn2)nc2ccccc12 (stereo not shown) [Example 31, 5-(aminomethyl)-2-methyl-N-(1-(2-(4-(trifluoromethyl)-1H-1,2,3-triazol-1-yl)quinolin-4-yl)ethyl)benzamide] yielded an IC50 (read-out: IC50) of 0.674 µM.
In the case of COCC(OCc1cscn1)c1ccc(C(=O)NC2(c3cc(-c4cnn(C)c4)cc4nc(C)ccc34)CC2)c(C)c1 (stereo not shown) [Example 353, 4-(2-methoxy-1-(thiazol-4-ylmethoxy)ethyl)-2-methyl-N-(1-(2-methyl-7-(1-methyl-1H-pyrazol-4-yl)quinolin-5-yl)cyclopropyl)benzamide], the IC50 (read-out: IC50) is reported as less than 0.001 µM.
Work on COC(=O)[C@H]1O[C@@H]1C(=O)NNC(=O)CCc1ccccc1C(=O)N[C@H](C)c1cc(-c2cnn(C)c2)nc2ccccc12 [Example 220, methyl(2S,3S)-3-(2-(3-(2-(((R)-1-(2-(1-methyl-1H-pyrazol-4-yl)quinolin-4-yl)ethyl)carbamoyl)phenyl)propanoyl)hydrazine-1-carbonyl)oxirane-2-carboxylate] yielded an IC50 (read-out: IC50) of 0.002 µM.
With Cc1nc(CNC(=O)c2ccc(C(=O)N[C@H](C)c3cc(-c4cnn(C)c4)nc4ccccc34)c(C)c2)cs1 [Example 204] the IC50 (read-out: IC50) was 0.073 µM.
Compound Cc1ccc(N2CCNCC2)cc1C(=O)NC1(c2cc(-c3ccc(C(=O)N(C)C)[nH]3)cc3ccccc23)CC1 [Example 276, N,N-dimethyl-5-(4-(1-(2-methyl-5-(piperazin-1-yl)benzamido)cyclopropyl)naphthalen-2-yl)-1H-pyrrole-2-carboxamide] has an IC50 (read-out: IC50) of 0.003 µM.
Work on Cc1cc(COCc2cocn2)ccc1C(=O)NC1(c2cc(-c3cnn(C)c3)cc3ncccc23)CC1 [Example 345, 2-methyl-N-(1-(7-(1-methyl-1H-pyrazol-4-yl)quinolin-5-yl)cyclopropyl)-4-((oxazol-4-ylmethoxy)methyl)benzamide] yielded an IC50 (read-out: IC50) of less than 0.001 µM.
Cc1ccc(NC(=O)[C@H]2CCCCN2)cc1C(=O)NC(C)c1cc(-c2cn[nH]c2)cc2ccccc12 (stereo partly drawn) [Example 51, (2R)—N-(3-((1-(3-(1H-pyrazol-4-yl)naphthalen-1-yl)ethyl)carbamoyl)-4-methylphenyl)piperidine-2-carboxamide] was tested, and the IC50 (read-out: IC50) was 0.019 µM.
For Cc1ccc(CN)cc1C(=O)NC(C)c1cc(-n2cnnc2C(N)=O)nc2ccccc12 (stereo not shown) [Example 33, 4-(4-(1-(5-(aminomethyl)-2-methylbenzamido)ethyl)quinolin-2-yl)-4H-1,2,4-triazole-3-carboxamide], the IC50 (read-out: IC50) was 1.36 µM.
Cc1cc(COCc2cscn2)ccc1C(=O)NC1(c2cc(-c3cc(C(=O)N(C)CCN(C)C)n[nH]3)nc3ccccc23)CC1 [Example 329, N-(2-(dimethylamino)ethyl)-N-methyl-5-(4-(1-(2-methyl-4-((thiazol-4-ylmethoxy)methyl)benzamido)cyclopropyl)quinolin-2-yl)-1H-pyrazole-3-carboxamide] showed an IC50 (read-out: IC50) of less than 0.001 µM.
Cc1ccc(N2CC3CN(C)CC3C2)cc1C(=O)N[C@H](C)c1cc(-c2cnn(C)c2)nc2ccccc12 (stereo partly drawn) [Example 262, 2-methyl-N-((R)-1-(2-(1-methyl-1H-pyrazol-4-yl)quinolin-4-yl)ethyl)-5-(5-methylhexahydropyrrolo[3,4-c]pyrrol-2(1H)-yl)benzamide] was tested, and the IC50 (read-out: IC50) was 0.008 µM.
With Cc1cc(-c2cc(C(C)NC(=O)c3ccccc3C)c3ccccc3n2)c[nH]1 (stereo not shown) [Example 117, 2-methyl-N-{1-[2-(5-methyl-1H-pyrrol-3-yl)quinolin-4-yl]ethyl}benzamide] the IC50 (read-out: IC50) was 0.412 µM.
Work on Cc1ccccc1C(=O)N[C@H](C)c1cc(N(C)C)nc2ccccc12 [Example 42, (R)-N-(1-(2-(dimethylamino)quinolin-4-yl)ethyl)-2-methylbenzamide] yielded an IC50 (read-out: IC50) of 2.17 µM.
Compound Cc1ccccc1C(=O)NC(C)c1cc(CN2CCCC2=O)nc2ccccc12 (stereo in doubt) [Example 156, 2-methyl-N-[(1R)-1-{2-[(2-oxopyrrolidin-1-yl)-methyl]quinolin-4-yl}ethyl]benzamide] has an IC50 (read-out: IC50) of 7.22 µM.
Cc1cc(C(C)(C)NC(=O)c2cscn2)ccc1C(=O)N[C@H](C)c1cc(-c2cnn(C)c2)nc2ccccc12 [Example 214, (R)-N-(2-(3-methyl-4-((1-(2-(1-methyl-1H-pyrazol-4-yl)quinolin-4-yl)ethyl)carbamoyl)phenyl)propan-2-yl)thiazole-4-carboxamide] gave an IC50 (read-out: IC50) of 0.169 µM.
In the case of Cc1ccc(CN)cc1C(=O)NC(C)c1cc(-c2cnn(C)c2)c(O)c2ccccc12 (stereo not shown) [Example 217, 5-(aminomethyl)-N-(1-(4-hydroxy-3-(1-methyl-1H-pyrazol-4-yl)naphthalen-1-yl)ethyl)-2-methylbenzamide], the IC50 (read-out: IC50) is reported as 0.119 µM.
Cc1ccc(CN)cc1C(=O)N[C@H](C)c1cc(-n2cncn2)nc2ccccc12 [Example 24, (R)-N-(1-(2-(1H-1,2,4-triazol-1-yl)quinolin-4-yl)ethyl)-5-(aminomethyl)-2-methylbenzamide] gave an IC50 (read-out: IC50) of 0.25 µM.
Cc1ccccc1C(=O)NC(C)c1cc(-c2cccnc2)nc2ccccc12 (stereo not shown) [Example 114, 2-methyl-N-{1-[2-(pyridin-3-yl)quinolin-4-yl]ethyl}benzamide] gave an IC50 (read-out: IC50) of 0.877 µM.
COC[C@H](OCc1cscn1)c1ccc(C(=O)NC2(c3cc(-c4cc(C(=O)N(C)C)n[nH]4)nc4ccccc34)CC2)c(C)c1 (single isomer, unassigned) [Example 337] gave an IC50 (read-out: IC50) of less than 0.001 µM.
Work on Cc1cc(CNCc2cscn2)ccc1C(=O)NC1(c2cc(-c3cnn(C)c3)nc3ccccc23)CC1 [Example 210] yielded an IC50 (read-out: IC50) of 0.006 µM.
Compound Cc1cc(COCc2cocn2)ccc1C(=O)NC1(c2cc(-c3cc(C(=O)N(C)C)n[nH]3)nc3ccccc23)CC1 [Example 346, N,N-dimethyl-5-(4-(1-(2-methyl-4-((oxazol-4-ylmethoxy)methyl)benzamido)cyclopropyl)quinolin-2-yl)-1H-pyrazole-3-carboxamide] has an IC50 (read-out: IC50) of less than 0.001 µM.
Compound COC[C@H](OCc1cocn1)c1ccc(C(=O)NC2(c3cc(-c4cnn(C)c4)cc4ncccc34)CC2)c(C)c1 (single isomer, unassigned) [Example 340] has an IC50 (read-out: IC50) of 0.002 µM.
